These results are taken from patent US20060154243A1 (priority 2003, published 2006).

Some test systems named below: serum SARS-yellow; serum SARS-green; serum 6 (individual 6); serum 62 (individual 62); serum 37 (individual 37); serum London; serum 2 (individual 2).
Common to all, as to assay type: binding, human
The subject of experiment [1] is serum 1b (individual 1, late serum).
Experiment [2] deals with serum 1a (individual 1, early serum).
In experiment [3] the test system is control serum Blood-bank (commercial negative donor pooled serum).
Experiment [4] deals with control serum LUMC (pooled serum of ten healthy hospital workers).

As for IQLLAAVGEILLLEW, in the experiment on serum SARS-yellow, the “Binding of serum SARS-yellow to linear peptides of Orf14 of SARS-CoV TOR2” value (from here on “Binding of serum SARS-yellow”) was 0.4. For the same sequence, the “Binding of serum 1b to linear peptides of Orf14 of SARS-CoV TOR2” value (“Binding of serum 1b” for short) in [1] is listed as 0.4. Besides, in the experiment with serum SARS-green, the “Binding of serum SARS-green to linear peptides of Orf14 of SARS-CoV TOR2” value (“Binding of serum SARS-green” below) came to 0.2. Further, the “Binding of serum 6 to linear peptides of Orf14 of SARS-CoV TOR2” value in the experiment with serum 6 (individual 6) was 0.4. In addition, the “Binding of serum 1a to linear peptides of Orf14 of SARS-CoV TOR2” value (shortened to “Binding of serum 1a”) in experiment [2] stood at 0.5. In [3], the “Control Serum Blood-Bank Looped peptides” value is listed as 0.6 and the “Control serum Blood-bank linear peptides” value is on record as 0.5. Besides, the “Binding of serum 62 to linear peptides of Orf14 of SARS-CoV TOR2” value in the experiment on serum 62 (individual 62) was 0.4. Further, in [4], the “Control serum LUMC linear peptides” value is given as 0.6 and the “Control serum LUMC looped peptides” value was 0.5. For the same sequence, the “Binding of serum 37 to linear peptides of Orf14 of SARS-CoV TOR2” value in the experiment with serum 37 (individual 37) was 0.6. The “Binding of serum London to linear peptides of Orf14 of SARS-CoV TOR2” value (“Binding of serum London” for short) with serum London is listed as 0.4. The “Binding of serum 2 to linear peptides of Orf14 of SARS-CoV TOR2” value in the experiment on serum 2 (individual 2) is given as 0.5.
On to ILLLEWLAEVVKLPS, for which the “Binding of serum SARS-yellow” value in the experiment with serum SARS-yellow was 0.3. Also, in experiment [1], the “Binding of serum 1b” value amounted to 0.4. Besides, in the experiment with serum SARS-green, the “Binding of serum SARS-green” value came to 0.1. Also, the “Binding of serum 6 to linear peptides of Orf14 of SARS-CoV TOR2” value in the experiment with serum 6 (individual 6) was 0.5. The “Binding of serum 1a” value in experiment [2] amounted to 0.5. In experiment [3], the “Control Serum Blood-Bank Looped peptides” value is 0.7 and the “Control serum Blood-bank linear peptides” value stood at 0.6. Further, the “Binding of serum 62 to linear peptides of Orf14 of SARS-CoV TOR2” value with serum 62 (individual 62) stood at 0.4. In [4], the “Control serum LUMC linear peptides” value was 0.5 and the “Control serum LUMC looped peptides” value is listed as 0.6. The “Binding of serum 37 to linear peptides of Orf14 of SARS-CoV TOR2” value in the experiment on serum 37 (individual 37) was 0.6. In addition, the “Binding of serum London” value in the experiment on serum London came out at 0.5. Moreover, the “Binding of serum 2 to linear peptides of Orf14 of SARS-CoV TOR2” value with serum 2 (individual 2) amounted to 0.5.
In the case of LAAVGEILLLEWLAE, the “Binding of serum SARS-yellow” value with serum SARS-yellow amounted to 0.6. In addition, the “Binding of serum 1b” value in experiment [1] was 0.5. Also, in the experiment on serum SARS-green, the “Binding of serum SARS-green” value amounted to 0.5. Further, the “Binding of serum 6 to linear peptides of Orf14 of SARS-CoV TOR2” value in the experiment on serum 6 (individual 6) worked out at 0.5. For the same sequence, the “Binding of serum 1a” value in experiment [2] came to 0.6. In addition, in [3], the “Control Serum Blood-Bank Looped peptides” value is reported as 0.7 and the “Control serum Blood-bank linear peptides” value is given as 0.4. Besides, the “Binding of serum 62 to linear peptides of Orf14 of SARS-CoV TOR2” value in the experiment with serum 62 (individual 62) came to 0.5. Also, in experiment [4], the “Control serum LUMC linear peptides” value amounted to 0.6 and the “Control serum LUMC looped peptides” value worked out at 0.7. Besides, the “Binding of serum 37 to linear peptides of Orf14 of SARS-CoV TOR2” value with serum 37 (individual 37) was 0.7. Besides, the “Binding of serum London” value in the experiment with serum London is reported as 0.6. For the same sequence, the “Binding of serum 2 to linear peptides of Orf14 of SARS-CoV TOR2” value with serum 2 (individual 2) was 0.5.
On to VIQEIQLLAAVGEIL, for which, in the experiment with serum SARS-yellow, the “Binding of serum SARS-yellow” value worked out at 0.3. Moreover, the “Binding of serum 1b” value in [1] was found to be 0.4. Moreover, the “Binding of serum SARS-green” value in the experiment with serum SARS-green is 0.5. The “Binding of serum 6 to linear peptides of Orf14 of SARS-CoV TOR2” value in the experiment with serum 6 (individual 6) was determined as 0.3. For the same sequence, in experiment [2], the “Binding of serum 1a” value turned out to be 0.5. Besides, in experiment [3], the “Control Serum Blood-Bank Looped peptides” value is listed as 0.5 and the “Control serum Blood-bank linear peptides” value was 0.4. The “Binding of serum 62 to linear peptides of Orf14 of SARS-CoV TOR2” value in the experiment with serum 62 (individual 62) is 0.4. For the same sequence, in experiment [4], the “Control serum LUMC linear peptides” value is reported as 0.6 and the “Control serum LUMC looped peptides” value was 0.9. The “Binding of serum 37 to linear peptides of Orf14 of SARS-CoV TOR2” value in the experiment with serum 37 (individual 37) is reported as 0.6. Also, in the experiment with serum London, the “Binding of serum London” value is given as 0.4. For the same sequence, the “Binding of serum 2 to linear peptides of Orf14 of SARS-CoV TOR2” value with serum 2 (individual 2) is given as 0.4.
As for AAVGEILLLEWLAEV, in the experiment on serum SARS-yellow, the “Binding of serum SARS-yellow” value turned out to be 0.6. Besides, in experiment [1], the “Binding of serum 1b” value turned out to be 0.5. Besides, the “Binding of serum SARS-green” value in the experiment on serum SARS-green amounted to 0.5. For the same sequence, the “Binding of serum 6 to linear peptides of Orf14 of SARS-CoV TOR2” value with serum 6 (individual 6) was 0.5. Further, the “Binding of serum 1a” value in experiment [2] is given as 0.6. In experiment [3], the “Control Serum Blood-Bank Looped peptides” value is 0.7 and the “Control serum Blood-bank linear peptides” value amounted to 0.4. The “Binding of serum 62 to linear peptides of Orf14 of SARS-CoV TOR2” value with serum 62 (individual 62) was 0.6. Moreover, in experiment [4], the “Control serum LUMC linear peptides” value is 0.6 and the “Control serum LUMC looped peptides” value was determined as 0.7. For the same sequence, in the experiment with serum 37 (individual 37), the “Binding of serum 37 to linear peptides of Orf14 of SARS-CoV TOR2” value is recorded as 0.8. Further, the “Binding of serum London” value in the experiment on serum London was 0.6. Further, the “Binding of serum 2 to linear peptides of Orf14 of SARS-CoV TOR2” value in the experiment on serum 2 (individual 2) came out at 0.6.
For QEIQLLAAVGEILLL, the “Binding of serum SARS-yellow” value with serum SARS-yellow is 0.5. The “Binding of serum 1b” value in [1] is 0.4. In addition, the “Binding of serum SARS-green” value in the experiment on serum SARS-green worked out at 0.2. Moreover, the “Binding of serum 6 to linear peptides of Orf14 of SARS-CoV TOR2” value with serum 6 (individual 6) is 0.4. Further, the “Binding of serum 1a” value in experiment [2] came to 0.5. Besides, in experiment [3], the “Control Serum Blood-Bank Looped peptides” value was 0.6 and the “Control serum Blood-bank linear peptides” value is 0.4. For the same sequence, the “Binding of serum 62 to linear peptides of Orf14 of SARS-CoV TOR2” value in the experiment on serum 62 (individual 62) is 0.4. In addition, in experiment [4], the “Control serum LUMC linear peptides” value came out at 0.7 and the “Control serum LUMC looped peptides” value was 0.5. For the same sequence, the “Binding of serum 37 to linear peptides of Orf14 of SARS-CoV TOR2” value in the experiment on serum 37 (individual 37) is 0.6. In the experiment on serum London, the “Binding of serum London” value came out at 0.3. In the experiment with serum 2 (individual 2), the “Binding of serum 2 to linear peptides of Orf14 of SARS-CoV TOR2” value was 0.5.
Turning to QLLAAVGEILLLEWL, in the experiment with serum SARS-yellow, the “Binding of serum SARS-yellow” value was 0.4. Also, in experiment [1], the “Binding of serum 1b” value was 0.4. Moreover, in the experiment with serum SARS-green, the “Binding of serum SARS-green” value was 0.1. The “Binding of serum 6 to linear peptides of Orf14 of SARS-CoV TOR2” value with serum 6 (individual 6) worked out at 0.3. In addition, in experiment [2], the “Binding of serum 1a” value came out at 0.5. In [3], the “Control Serum Blood-Bank Looped peptides” value came to 0.6 and the “Control serum Blood-bank linear peptides” value worked out at 0.4. Besides, the “Binding of serum 62 to linear peptides of Orf14 of SARS-CoV TOR2” value in the experiment with serum 62 (individual 62) is 0.4. Besides, in experiment [4], the “Control serum LUMC linear peptides” value came to 0.6 and the “Control serum LUMC looped peptides” value stood at 0.5. Besides, in the experiment with serum 37 (individual 37), the “Binding of serum 37 to linear peptides of Orf14 of SARS-CoV TOR2” value was 0.6. In the experiment with serum London, the “Binding of serum London” value came to 0.4. The “Binding of serum 2 to linear peptides of Orf14 of SARS-CoV TOR2” value in the experiment on serum 2 (individual 2) is 0.4.
For REAEAAVKPLLAPHH, the “Binding of serum SARS-yellow” value with serum SARS-yellow is 0.2. In experiment [1], the “Binding of serum 1b” value came out at 0.3. In addition, the “Binding of serum SARS-green” value in the experiment with serum SARS-green turned out to be 0.1. For the same sequence, in the experiment with serum 6 (individual 6), the “Binding of serum 6 to linear peptides of Orf14 of SARS-CoV TOR2” value amounted to 0.3. In addition, the “Binding of serum 1a” value in experiment [2] was determined as 0.5. Besides, in [3], the “Control Serum Blood-Bank Looped peptides” value is reported as 0.7 and the “Control serum Blood-bank linear peptides” value is 0.2. Moreover, the “Binding of serum 62 to linear peptides of Orf14 of SARS-CoV TOR2” value with serum 62 (individual 62) came to 0.3. Also, in experiment [4], the “Control serum LUMC linear peptides” value was determined as 0.3 and the “Control serum LUMC looped peptides” value is 0.6. The “Binding of serum 37 to linear peptides of Orf14 of SARS-CoV TOR2” value in the experiment on serum 37 (individual 37) is 0.5. Besides, the “Binding of serum London” value with serum London stood at 0.4. Further, the “Binding of serum 2 to linear peptides of Orf14 of SARS-CoV TOR2” value with serum 2 (individual 2) is listed as 0.4.
